Data as given in US5281604A, “Angiotensin II receptor blocking 2,3,6-substituted quinazolinones” (American Cyanamid Company, priority 1993, dated 1994).
“And” between values parts separate entries of the source, which are not always exact repeats. Equal entries are not always repeated.

Test system: ANGIOTENSIN II (AII) VASOPRESSOR RESPONSE
Experiment: AII Challenge: blockade of the angiotensin II vasopressor response in conscious spontaneously hypertensive rats
Format: in vivo, rat (Male Okamoto-Aoki SHR)
Excerpt: By administering a compound of this invention to a rat, and then challenging with angiotensin II, a blockage of the vasopressor response is realized.
Conscious Male Okamoto-Aoki SHR, 16-20 weeks old, weighing approximately 330 g are purchased from Charles River Labs (Wilmington, Mass.). Conscious rats are restrained in a supine position with elastic tape. The area at the base of the tail is locally anesthetized by subcutaneous infiltration with 2% procaine. The ventral caudal artery and vein are isolated, and a cannula made of polyethylene (PE) 10-20 tubing (fused together by heat) is passed into the lower abdominal aorta and vena cava, respectively. The cannula is secured, heparinized (1,000 I.U./ml), sealed and the wound is closed. The animals are placed in plastic restraining cages in an upright position. The cannula is attached to a Statham P23Db pressure transducer, and pulsatile blood pressure is recorded to 10-15 minutes with a Gould Brush recorder. (Chan et al., (Drug Development Res., 18:75-94, 1989).
Angiotensin II (human sequence, Sigma Chem. Co., St. Louis, Mo.) of 0.05 and 0.1 ug/kg i.v. is injected into all rats (predosing response). Then a test compound, vehicle or a known angiotensin II antagonist is administered i.v., i.p. or orally to each set of rats. The two doses of angiotensin II are given to each rat again at 30, 60, 90, 120, 180, 240 and 300 minutes post dosing the compound or vehicle. The vasopressor response of angiotensin II is measured for the increase in systolic blood pressure in mmHg. The percentage of antagonism or blockade of the vasopressor response of angiotensin II by a compound is calculated using the vasopressor response (increase in systolic blood pressure) of angiotensin II of each rat predosing the compound as 100%. A compound is considered active if at 30 mg/kg i.v. it antagonized at least 50% of the response.

[1] = 1 mg/kg i.v., AII 0.05 mcg/kg IV, 30 min post dose
[2] = 1 mg/kg i.v., AII 0.1 mcg/kg IV, 30 min post dose
[3] = 29 mg/kg i.v., AII 0.05 mcg/kg IV, 60 min post dose
[4] = 29 mg/kg i.v., AII 0.05 mcg/kg IV, 90 min post dose
[5] = 29 mg/kg i.v., AII 0.05 mcg/kg IV, 120 min post dose
[6] = 29 mg/kg i.v., AII 0.05 mcg/kg IV, 180 min post dose
[7] = 29 mg/kg i.v., AII 0.05 mcg/kg IV, 240 min post dose
[8] = 29 mg/kg i.v., AII 0.05 mcg/kg IV, 300 min post dose
[9] = 29 mg/kg i.v., AII 0.1 mcg/kg IV, 60 min post dose
[10] = 29 mg/kg i.v., AII 0.1 mcg/kg IV, 90 min post dose
[11] = 29 mg/kg i.v., AII 0.1 mcg/kg IV, 120 min post dose
[12] = 29 mg/kg i.v., AII 0.1 mcg/kg IV, 180 min post dose
[13] = 29 mg/kg i.v., AII 0.1 mcg/kg IV, 240 min post dose
[14] = 29 mg/kg i.v., AII 0.1 mcg/kg IV, 300 min post dose
[15] = 3 mg/kg i.v., AII 0.05 mcg/kg IV, 30 min post dose
[16] = 3 mg/kg i.v., AII 0.05 mcg/kg IV, 60 min post dose
[17] = 3 mg/kg i.v., AII 0.05 mcg/kg IV, 90 min post dose
[18] = 3 mg/kg i.v., AII 0.05 mcg/kg IV, 120 min post dose
[19] = 3 mg/kg i.v., AII 0.05 mcg/kg IV, 180 min post dose
[20] = 3 mg/kg i.v., AII 0.05 mcg/kg IV, 240 min post dose
[21] = 3 mg/kg i.v., AII 0.05 mcg/kg IV, 300 min post dose
[22] = 3 mg/kg i.v., AII 0.1 mcg/kg IV, 30 min post dose
[23] = 3 mg/kg i.v., AII 0.1 mcg/kg IV, 60 min post dose
[24] = 3 mg/kg i.v., AII 0.1 mcg/kg IV, 90 min post dose
[25] = 3 mg/kg i.v., AII 0.1 mcg/kg IV, 120 min post dose
[26] = 3 mg/kg i.v., AII 0.1 mcg/kg IV, 180 min post dose
[27] = 3 mg/kg i.v., AII 0.1 mcg/kg IV, 240 min post dose
[28] = 3 mg/kg i.v., AII 0.1 mcg/kg IV, 300 min post dose

## CCCCc1nc2ccc(C3CC4C(O3)ON(c3ccccc3)C4c3ccccc3)cc2c(=O)n1Cc1ccc(-c2ccccc2-c2nnn[nH]2)cc1 (stereo not drawn) [Example 10, (3α, 3aβ, 5β, 6aβ)-2-Butyl-6-(hexahydro-2,3-diphenylfuro[3,2-d]isoxazol-5-yl)-3-[[2'-(1H-tetrazol-5-yl)[1,1'-biphenyl]-4-yl]methyl]-4(3H)-quinazolinone]
[1]
  % Inhibition: 39%
  Average Change: 33.5 mmHg
  Control Before AII (single rat): 248 mmHg and 230 mmHg
  Response After AII (single rat): 290 mmHg and 255 mmHg
  Response Change (single rat): 42 mmHg and 25 mmHg
[2]
  % Inhibition: 41%
  Average Change: 42.5 mmHg
  Control Before AII (single rat): 250 mmHg and 220 mmHg
  Response After AII (single rat): 295 mmHg and 260 mmHg
  Response Change (single rat): 45 mmHg and 40 mmHg
[3]
  % Inhibition: 82%
  Average Change: 10 mmHg
  Control Before AII (single rat): 265 mmHg and 235 mmHg
  Response After AII (single rat): 270 mmHg and 250 mmHg
  Response Change (single rat): 5 mmHg and 15 mmHg
[4]
  % Inhibition: 82%
  Average Change: 10 mmHg
  Control Before AII (single rat): 235 mmHg and 230 mmHg
  Response After AII (single rat): 250 mmHg and 235 mmHg
  Response Change (single rat): 15 mmHg and 5 mmHg
[5]
  % Inhibition: 77%
  Average Change: 12.5 mmHg
  Control Before AII (single rat): 210 mmHg and 240 mmHg
  Response After AII (single rat): 225 mmHg and 250 mmHg
  Response Change (single rat): 15 mmHg and 10 mmHg
[6]
  % Inhibition: 73%
  Average Change: 15 mmHg
  Control Before AII (single rat): 215 mmHg and 220 mmHg
  Response After AII (single rat): 235 mmHg and 230 mmHg
  Response Change (single rat): 20 mmHg and 10 mmHg
[7]
  % Inhibition: 82%
  Average Change: 10 mmHg
  Control Before AII (single rat): 220 mmHg and 215 mmHg
  Response After AII (single rat): 235 mmHg and 220 mmHg
  Response Change (single rat): 15 mmHg and 5 mmHg
[8]
  % Inhibition: 73%
  Average Change: 15 mmHg
  Control Before AII (single rat): 210 mmHg and 200 mmHg
  Response After AII (single rat): 220 mmHg
  Response Change (single rat): 10 mmHg and 20 mmHg
[9]
  % Inhibition: 86%
  Average Change: 10 mmHg
  Control Before AII (single rat): 265 mmHg and 230 mmHg
  Response After AII (single rat): 270 mmHg and 245 mmHg
  Response Change (single rat): 5 mmHg and 15 mmHg
[10]
  % Inhibition: 72%
  Average Change: 20 mmHg
  Control Before AII (single rat): 230 mmHg and 235 mmHg
  Response After AII (single rat): 250 mmHg and 255 mmHg
  Response Change (single rat): 20 mmHg
[11]
  % Inhibition: 65%
  Average Change: 25 mmHg
  Control Before AII (single rat): 200 mmHg and 215 mmHg
  Response After AII (single rat): 230 mmHg and 235 mmHg
  Response Change (single rat): 30 mmHg and 20 mmHg
[12]
  % Inhibition: 79%
  Average Change: 15 mmHg
  Control Before AII (single rat): 210 mmHg and 220 mmHg
  Response After AII (single rat): 225 mmHg and 235 mmHg
  Response Change (single rat): 15 mmHg
[13]
  % Inhibition: 79%
  Average Change: 15 mmHg
  Control Before AII (single rat): 215 mmHg
  Response After AII (single rat): 235 mmHg and 225 mmHg
  Response Change (single rat): 20 mmHg and 10 mmHg
[14]
  % Inhibition: 79%
  Average Change: 15 mmHg
  Control Before AII (single rat): 210 mmHg
  Response After AII (single rat): 230 mmHg and 220 mmHg
  Response Change (single rat): 20 mmHg and 10 mmHg

## CCCCc1nc2ccc(C3CC4C(c5ccc(C)cc5)=NOC4O3)cc2c(=O)n1Cc1ccc(-c2ccccc2-c2nnn[nH]2)cc1 (centres unmarked) [Example 12]
[15]
  % Inhibition: 56%
  Average Change: 16.5 mmHg
  Control Before AII (single rat): 220 mmHg and 255 mmHg
  Response After AII (single rat): 233 mmHg and 275 mmHg
  Response Change (single rat): 13 mmHg and 20 mmHg
[16]
  % Inhibition: 53%
  Average Change: 17.5 mmHg
  Control Before AII (single rat): 215 mmHg and 245 mmHg
  Response After AII (single rat): 235 mmHg and 260 mmHg
  Response Change (single rat): 20 mmHg and 15 mmHg
[17]
  % Inhibition: 60%
  Average Change: 15 mmHg
  Control Before AII (single rat): 225 mmHg and 235 mmHg
  Response After AII (single rat): 240 mmHg and 250 mmHg
  Response Change (single rat): 15 mmHg
[18]
  % Inhibition: 45%
  Average Change: 20.5 mmHg
  Control Before AII (single rat): 207 mmHg and 225 mmHg
  Response After AII (single rat): 233 mmHg and 240 mmHg
  Response Change (single rat): 26 mmHg and 15 mmHg
[19]
  % Inhibition: 33%
  Average Change: 25 mmHg
  Control Before AII (single rat): 195 mmHg and 225 mmHg
  Response After AII (single rat): 225 mmHg and 245 mmHg
  Response Change (single rat): 30 mmHg and 20 mmHg
[20]
  % Inhibition: 53%
  Average Change: 17.5 mmHg
  Control Before AII (single rat): 220 mmHg and 230 mmHg
  Response After AII (single rat): 240 mmHg and 245 mmHg
  Response Change (single rat): 20 mmHg and 15 mmHg
[21]
  % Inhibition: 48%
  Average Change: 19.5 mmHg
  Control Before AII (single rat): 220 mmHg and 230 mmHg
  Response After AII (single rat): 245 mmHg and 244 mmHg
  Response Change (single rat): 25 mmHg and 14 mmHg
[22]
  % Inhibition: 53%
  Average Change: 18.5 mmHg
  Control Before AII (single rat): 218 mmHg and 250 mmHg
  Response After AII (single rat): 245 mmHg and 260 mmHg
  Response Change (single rat): 27 mmHg and 10 mmHg
[23]
  % Inhibition: 42%
  Average Change: 22.5 mmHg
  Control Before AII (single rat): 220 mmHg and 240 mmHg
  Response After AII (single rat): 245 mmHg and 260 mmHg
  Response Change (single rat): 25 mmHg and 20 mmHg
[24]
  % Inhibition: 29%
  Average Change: 27.5 mmHg
  Control Before AII (single rat): 220 mmHg and 230 mmHg
  Response After AII (single rat): 250 mmHg and 255 mmHg
  Response Change (single rat): 30 mmHg and 25 mmHg
[25]
  % Inhibition: 23%
  Average Change: 30 mmHg
  Control Before AII (single rat): 205 mmHg and 225 mmHg
  Response After AII (single rat): 240 mmHg and 250 mmHg
  Response Change (single rat): 35 mmHg and 25 mmHg
[26]
  % Inhibition: 42%
  Average Change: 22.5 mmHg
  Control Before AII (single rat): 205 mmHg and 225 mmHg
  Response After AII (single rat): 225 mmHg and 250 mmHg
  Response Change (single rat): 20 mmHg and 25 mmHg
[27]
  % Inhibition: 10%
  Average Change: 35 mmHg
  Control Before AII (single rat): 220 mmHg and 225 mmHg
  Response After AII (single rat): 260 mmHg and 255 mmHg
  Response Change (single rat): 40 mmHg and 30 mmHg
[28]
  % Inhibition: 10%
  Average Change: 35 mmHg
  Control Before AII (single rat): 220 mmHg and 225 mmHg
  Response After AII (single rat): 255 mmHg and 260 mmHg
  Response Change (single rat): 35 mmHg
